# Source: US20170190671A1, “BIS(ARYL)CATECHOL DERIVATIVES AS HERBICIDES” (E I DU PONT DE NEMOURS AND COMPANY, priority 2014, published 2017)
# Tests used:
# Assay type in all cases: in vivo
# Settings in all cases: scale 0 to 100
# [1] = test system: spring barley (Hordeum vulgare); assay: Test D preemergence
# Source text: (§1) Seeds of plant species selected from bluegrass (annual bluegrass, Poa annua), blackgrass (Alopecurus myosuroides), canarygrass (Phalaris minor), chickweed (common chickweed, Stellaria media), cutleaf geranium (Geranium dissectum), galium (catchweed bedstraw, Galium aparine), downy bromegrass (Bromus tectorum), field poppy (Papaver rhoeas), field violet (Viola arvensis), green foxtail (Setaria viridis), deadnettle (henbit deadnettle, Lamium amplexicaule), Italian ryegrass (Lolium multiflorum), kochia (Kochia scoparia), lambsquarters (Chenopodium album), oilseed rape (Brassica napus), pigweed (Amaranthus retroflexus), chamomile (scentless chamomile, Matricaria inodora), Russian thistle (Salsola kali), speedwell (bird's-eye speedwell, Veronica persica), spring barley (Hordeum vulgare), spring wheat (Triticum aestivum), wild buckwheat (Polygonum convolvulus), wild mustard (Sinapis arvensis), wild oat (Avenafatua), wild radish (Raphanus raphanistrum), windgrass (Apera spica-venti), winter barley (Hordeum vulgare), and winter wheat (Triticum aestivum) were planted into a silt loam soil and treated preemergence with test chemicals formulated in a non-phytotoxic solvent mixture which included a surfactant.
# (§2) At the same time, these species were planted in pots containing Redi-Earth® planting medium (Scotts Company, 14111 Scottslawn Road, Marysville, Ohio 43041) comprising spaghnum peat moss, vermiculite, wetting agent and starter nutrients and treated with postemergence applications of the test chemicals formulated in the same manner. Plants ranged in height from 2 to 18 cm (1- to 4-leaf stage). Treated plants and controls were maintained in a controlled growth environment for 14 to 21 days after which time all species were compared to controls and visually evaluated. Plant response ratings, summarized in Table D, are based on a scale of 0 to 100 where 0 is no effect and 100 is complete control. A dash (-) response means no test result.
# [2] = test system: chickweed (common chickweed, Stellaria media); assay: Test D preemergence
# Source text: as §1, §2
# [3] = test system: canarygrass (Phalaris minor); assay: Test D preemergence
# Source text: as §1, §2
# [4] = test system: bluegrass (annual bluegrass, Poa annua); assay: Test D preemergence
# Source text: as §1, §2
# [5] = test system: blackgrass (Alopecurus myosuroides); assay: Test D preemergence
# Source text: as §1, §2
# [6] = test system: pigweed (Amaranthus retroflexus); assay: Test D preemergence
# Source text: as §1, §2
# kochia (Kochia scoparia) = assay: Test D preemergence
# Source text: as §1, §2
# [7] = test system: windgrass (Apera spica-venti); assay: Test D preemergence
# Source text: as §1, §2
# [8] = test system: galium (catchweed bedstraw, Galium aparine); assay: Test D preemergence
# Source text: as §1, §2
# [9] = test system: Italian ryegrass (Lolium multiflorum); assay: Test D preemergence
# Source text: as §1, §2
# [10] = test system: downy bromegrass (Bromus tectorum); assay: Test D preemergence
# Source text: as §1, §2
# [11] = test system: deadnettle (henbit deadnettle, Lamium amplexicaule); assay: Test D preemergence
# Source text: as §1, §2
# [12] = test system: wild mustard (Sinapis arvensis); assay: Test D preemergence
# Source text: as §1, §2
# [13] = test system: wild buckwheat (Polygonum convolvulus); assay: Test D preemergence
# Source text: as §1, §2
# [14] = test system: spring wheat (Triticum aestivum); assay: Test D preemergence
# Source text: as §1, §2
# [15] = test system: oilseed rape (Brassica napus); assay: Test D preemergence
# Source text: as §1, §2
# [16] = test system: winter barley (Hordeum vulgare); assay: Test D preemergence
# Source text: as §1, §2
# [17] = test system: canarygrass (Phalaris minor); assay: Test D postemergence
# Procedure, shortened: (§3)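 Seeds were sown in silt loam for preemergence treatment, or in peat/vermiculite medium for postemergence sprays at 2–18 cm (1- to 4-leaf stage). Test chemicals were in a non-phytotoxic solvent with surfactant. After 14–21 days in a controlled environment, plants were visually rated against controls on a 0–100 scale (0 no effect, 100 complete control).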
# [18] = test system: deadnettle (henbit deadnettle, Lamium amplexicaule); assay: Test D postemergence
# Procedure, shortened: as §3
compound,measurement,setting,value
"Fc1cccc(Oc2ncc(C(F)(F)F)cn2)c1Oc1ncc(Cl)cn1 [Compound 42, 5-chloro-2-[2-fluoro-6-[[5-(trifluoromethyl)-2-pyrimidinyl]oxy]phenoxy]pyrimidine]","Plant response rating, Barley, Spring",[1]; 16 g ai/ha,0
same,"Plant response rating, Barley, Spring",[1]; 31 g ai/ha,35
same,"Plant response rating, Barley, Spring",[1]; 62 g ai/ha,15
same,"Plant response rating, Barley, Spring",[1]; 125 g ai/ha,65
same,"Plant response rating, Chickweed",[2]; 16 g ai/ha,70
same,"Plant response rating, Chickweed",[2]; 31 g ai/ha,100
same,"Plant response rating, Chickweed",[2]; 62 g ai/ha,100
same,"Plant response rating, Chickweed",[2]; 125 g ai/ha,100
same,"Plant response rating, Canarygrass",[3]; 16 g ai/ha,15
same,"Plant response rating, Canarygrass",[3]; 31 g ai/ha,35
same,"Plant response rating, Canarygrass",[3]; 62 g ai/ha,35
same,"Plant response rating, Canarygrass",[3]; 125 g ai/ha,100
same,"Plant response rating, Bluegrass",[4]; 16 g ai/ha,10
same,"Plant response rating, Bluegrass",[4]; 31 g ai/ha,0
same,"Plant response rating, Bluegrass",[4]; 62 g ai/ha,45
same,"Plant response rating, Bluegrass",[4]; 125 g ai/ha,90
same,"Plant response rating, Blackgrass",[5]; 16 g ai/ha,0
same,"Plant response rating, Blackgrass",[5]; 31 g ai/ha,10
same,"Plant response rating, Blackgrass",[5]; 62 g ai/ha,35
same,"Plant response rating, Blackgrass",[5]; 125 g ai/ha,75
same,"Plant response rating, Pigweed",[6]; 16 g ai/ha,100
same,"Plant response rating, Pigweed",[6]; 31 g ai/ha,100
same,"Plant response rating, Pigweed",[6]; 62 g ai/ha,100
same,"Plant response rating, Pigweed",[6]; 125 g ai/ha,100
same,"Plant response rating, Kochia",kochia (Kochia scoparia); 16 g ai/ha,35
same,"Plant response rating, Kochia",kochia (Kochia scoparia); 31 g ai/ha,65
same,"Plant response rating, Kochia",kochia (Kochia scoparia); 62 g ai/ha,100
same,"Plant response rating, Kochia",kochia (Kochia scoparia); 125 g ai/ha,100
same,"Plant response rating, Windgrass",[7]; 16 g ai/ha,15
same,"Plant response rating, Windgrass",[7]; 31 g ai/ha,60
same,"Plant response rating, Windgrass",[7]; 62 g ai/ha,90
same,"Plant response rating, Windgrass",[7]; 125 g ai/ha,100
same,"Plant response rating, Galium",[8]; 16 g ai/ha,65
same,"Plant response rating, Galium",[8]; 31 g ai/ha,70
same,"Plant response rating, Galium",[8]; 62 g ai/ha,100
same,"Plant response rating, Galium",[8]; 125 g ai/ha,100
same,"Plant response rating, Ryegrass, Italian",[9]; 16 g ai/ha,0
same,"Plant response rating, Ryegrass, Italian",[9]; 31 g ai/ha,0
same,"Plant response rating, Ryegrass, Italian",[9]; 62 g ai/ha,35
same,"Plant response rating, Ryegrass, Italian",[9]; 125 g ai/ha,70
same,"Plant response rating, Bromegrass, Downy",[10]; 16 g ai/ha,0
same,"Plant response rating, Bromegrass, Downy",[10]; 31 g ai/ha,10
same,"Plant response rating, Bromegrass, Downy",[10]; 62 g ai/ha,50
same,"Plant response rating, Bromegrass, Downy",[10]; 125 g ai/ha,65
same,"Plant response rating, Deadnettle",[11]; 16 g ai/ha,70
same,"Plant response rating, Deadnettle",[11]; 31 g ai/ha,85
same,"Plant response rating, Deadnettle",[11]; 62 g ai/ha,100
same,"Plant response rating, Deadnettle",[11]; 125 g ai/ha,100
same,"Plant response rating, Mustard, Wild",[12]; 16 g ai/ha,70
same,"Plant response rating, Mustard, Wild",[12]; 31 g ai/ha,65
same,"Plant response rating, Mustard, Wild",[12]; 62 g ai/ha,85
same,"Plant response rating, Mustard, Wild",[12]; 125 g ai/ha,100
same,"Plant response rating, Buckwheat, Wild",[13]; 16 g ai/ha,0
same,"Plant response rating, Buckwheat, Wild",[13]; 31 g ai/ha,0
same,"Plant response rating, Buckwheat, Wild",[13]; 62 g ai/ha,100
same,"Plant response rating, Buckwheat, Wild",[13]; 125 g ai/ha,100
same,"Plant response rating, Wheat, Spring",[14]; 16 g ai/ha,0
same,"Plant response rating, Wheat, Spring",[14]; 31 g ai/ha,0
same,"Plant response rating, Wheat, Spring",[14]; 62 g ai/ha,15
same,"Plant response rating, Wheat, Spring",[14]; 125 g ai/ha,65
same,"Plant response rating, Oilseed Rape",[15]; 16 g ai/ha,50
same,"Plant response rating, Oilseed Rape",[15]; 31 g ai/ha,70
same,"Plant response rating, Oilseed Rape",[15]; 62 g ai/ha,100
same,"Plant response rating, Oilseed Rape",[15]; 125 g ai/ha,100
same,"Plant response rating, Barley, Winter",[16]; 16 g ai/ha,0
same,"Plant response rating, Barley, Winter",[16]; 31 g ai/ha,0
same,"Plant response rating, Barley, Winter",[16]; 62 g ai/ha,15
same,"Plant response rating, Barley, Winter",[16]; 125 g ai/ha,80
same,"Plant response rating, Canarygrass",[17]; 16 g ai/ha,35
same,"Plant response rating, Canarygrass",[17]; 31 g ai/ha,65
same,"Plant response rating, Canarygrass",[17]; 62 g ai/ha,70
same,"Plant response rating, Canarygrass",[17]; 125 g ai/ha,75
same,"Plant response rating, Deadnettle",[18]; 16 g ai/ha,35
same,"Plant response rating, Deadnettle",[18]; 31 g ai/ha,40
same,"Plant response rating, Deadnettle",[18]; 62 g ai/ha,60
same,"Plant response rating, Deadnettle",[18]; 125 g ai/ha,75
